This note sets out measurements from US11939612B2, “Process for preparing sphingolipids” (Evonik Operations GmbH, priority 2018, dated 2024).

The nature of data set [1]: Solubility temperature and crystal-free incorporation into cosmetic oils. The class given is physicochemical. The following applies: for Appearance at RT: after cooling. How it is done: For this purpose, the solubility temperatures of the sphingolipids were ascertained: A final concentration of 0.1% ceramide in cosmetic oil was chosen. The ceramide compositions were heated and stirred gradually in the cosmetic oils in a beaker on a hotplate. The solubility temperature was attained as soon as the solution was clear. Subsequently, the mixture was stirred at the solubility temperature ascertained for 1 hour. After it had cooled down to room temperature, the formulation was examined.

Data set [2] in a line: Hair breakage measurement (Cyclic Tester), repair after acidic straightening. The following applies: acid-straightened ethnic hair, test conditioner, 5 treatments, FIG. 3. How it is done:
Ethnic hair was acid-straightened and aftertreated with a conditioner that contained one of the claimed compositions with elevated triglyceride content, consisting of: 10% olive oil-based ceramide (Example 2). For comparison, the process was conducted with a corresponding amount of pure ceramide NG or pure olive oil.
The repair effect and the boosting of the CMC complex by means of Hair fatigue alpha were measured.
Ethnic hair was chemically straightened. For this purpose, an acidic standard formulation having a pH of about 1-2 was used in combination with the use of a straightening iron. Subsequently, the hair was treated as follows: • 1. Washing with a shampoo consisting of sodium lauryl ether sulfate and cocamidopropylbetaine. • 2. Application of the test conditioner; the contact time was 5 min. Subsequently, the hair tresses were rinsed under flowing tap water at a temperature of 37° C. for 1 min. • 3. Drying of the hair tresses with a hairdryer for 3 minutes.
These three treatment steps were conducted a total of 5×. […]
For quantification of the repair effect, a hair breakage measurement was conducted (Cyclic Tester, Diastron Limited, UK). […] The number of extension cycles survived is recorded and serves to calculate the probability of survival. […]

Setting [3] is: 0.1% ceramide in Mineral Oil (non-polar).
Where [4] appears, read: 0.1% ceramide in Octyldodecanol (polar).
Where [5] appears, read: 0.1% ceramide in TEGOSOFT APM (polar).
Where [6] appears, read: 0.1% ceramide in TEGOSOFT CT (polar-medium polar).
Where [7] appears, read: 0.1% ceramide in TEGOSOFT M (medium polar).
Where [8] appears, read: 0.1% ceramide in TEGOSOFT OS (non-polar).

With ceramide NP [Pure ceramide NP], the Solubility temperature in data set [1] (setting [3]) was determined as 110 °C; in data set [1] (setting [4]), 70 °C; in data set [1] (setting [5]), 65 °C; in data set [1] (setting [6]), 95 °C; in data set [1] (setting [7]), 90 °C; in data set [1] (setting [8]), 100 °C. Moreover, the “Appearance at RT” value in data set [1] (setting [3]), in data set [1] (setting [4]), in data set [1] (setting [5]), in data set [1] (setting [6]), in data set [1] (setting [7]) and in data set [1] (setting [8]) was “crystals” in each case.

On to ceramide NG, for which the “repair effect (probability of survival in the hair breakage test)” value in data set [2] was “not able to achieve any repair effect”.
